≈ marks a conversion by molar mass, not a printed value. Calls of active or inactive are those of the source. The rule behind the calls is not given here.
Columns and labels:
Candida tropicalis = assay: Antifungal activity against Candida tropicalis; type: functional
Staphylococcus aureus = assay: Antibacterial activity against Staphylococcus aureus; type: functional
[1] = Antioxidant activity assessed as ferrous ion chelating activity at 200 ug/ml; type: functional; settings: dose 200.0 µg/ml
Legionella pneumophila = assay: Antibacterial activity against Legionella pneumophila subsp. pneumophila; type: functional
Candida albicans = assay: Antifungal activity against Candida albicans; type: functional
[2] = Antioxidant activity assessed as DPPH radical scavenging activity at 10 to 200 ug/ml; type: functional; settings: dose 10-200 µg/ml
Enterococcus hirae = assay: Antibacterial activity against Enterococcus hirae; type: functional
Escherichia coli = assay: Antibacterial activity against Escherichia coli; type: functional
[3] = Antioxidant activity assessed as ferrous ion chelating activity at 10 ug/ml; type: functional; settings: dose 10.0 µg/ml
Bacillus cereus = assay: Antibacterial activity against Bacillus cereus; type: functional
Pseudomonas aeruginosa = assay: Antibacterial activity against Pseudomonas aeruginosa; type: functional
DNA = assay: Induction of Escherichia coli supercoiled pBR322 DNA cleavage assessed as increase in formation of linear form of DNA at 250 ug/ml by agarose gel electrophoresis; type: nucleic-acid assay; settings: dose 250.0 µg/ml
[4] = Antioxidant activity assessed as DPPH radical scavenging activity at 200 ug/ml relative to control; type: functional; settings: dose 200.0 µg/ml

Row | Structure (SMILES) | MIC (Candida tropicalis) | MIC (Staphylococcus aureus) | Activity [1] | MIC (Legionella pneumophila) | MIC (Candida albicans) | Activity [2] | MIC (Enterococcus hirae) | MIC (Escherichia coli) | Activity [3] | MIC (Bacillus cereus) | MIC (Pseudomonas aeruginosa) | Activity (DNA) | Activity [4]
1 | CC(C)CCc1cn(CC(=O)Nc2ccc(NC(=O)Cn3cc(CCC(C)C)nn3)cc2)nn1 | 32 µg/mL (≈ 68.6 µM) | 64 µg/mL (≈ 137 µM) | 70.8% | 32 µg/mL (≈ 68.6 µM) | 64 µg/mL (≈ 137 µM) | Active | 32 µg/mL (≈ 68.6 µM) | 128 µg/mL (≈ 274 µM) | 22% | 64 µg/mL (≈ 137 µM) | 64 µg/mL (≈ 137 µM) | Active | –
2 | O=C(Cn1cc(CCn2cc(CCc3ccccc3)nn2)nn1)Nc1ccc(NC(=O)Cn2cc(CCn3cc(CCc4ccccc4)nn3)nn2)cc1 | 16 µg/mL (≈ 22.1 µM) | 64 µg/mL (≈ 88.3 µM) | 17.3% | 64 µg/mL (≈ 88.3 µM) | 64 µg/mL (≈ 88.3 µM) | Active | 64 µg/mL (≈ 88.3 µM) | 128 µg/mL (≈ 177 µM) | – | 128 µg/mL (≈ 177 µM) | 64 µg/mL (≈ 88.3 µM) | Active | –
3 | O=C(Cn1cc(CCn2cc(CC3CCCCC3)nn2)nn1)Nc1ccc(NC(=O)Cn2cc(CCn3cc(CC4CCCCC4)nn3)nn2)cc1 | 4 µg/mL (≈ 5.64 µM) | 64 µg/mL (≈ 90.3 µM) | 48.9% | 32 µg/mL (≈ 45.1 µM) | 8 µg/mL (≈ 11.3 µM) | Active | 16 µg/mL (≈ 22.6 µM) | 128 µg/mL (≈ 181 µM) | – | 64 µg/mL (≈ 90.3 µM) | 64 µg/mL (≈ 90.3 µM) | Active | –
4 | OC(Cn1cncn1)(Cn1cncn1)c1ccc(F)cc1F [FLUCONAZOLE] | 0.5 µg/mL (≈ 1.63 µM) | – | – | – | 0.5 µg/mL (≈ 1.63 µM) | – | – | – | – | – | – | – | –
5 | O=C(Cn1cc(CCc2ccccc2)nn1)Nc1ccc(NC(=O)Cn2cc(CCc3ccccc3)nn2)cc1 | 64 µg/mL (≈ 120 µM) | 32 µg/mL (≈ 59.9 µM) | 41.4% | 64 µg/mL (≈ 120 µM) | 64 µg/mL (≈ 120 µM) | Active | 64 µg/mL (≈ 120 µM) | 128 µg/mL (≈ 239 µM) | – | 32 µg/mL (≈ 59.9 µM) | 16 µg/mL (≈ 29.9 µM) | Active | –
6 | CCOC(=O)c1cn(CCc2cn(CC(=O)Nc3ccc(NC(=O)Cn4cc(CCn5cc(C(=O)OCC)nn5)nn4)cc3)nn2)nn1 | 64 µg/mL (≈ 96.9 µM) | 32 µg/mL (≈ 48.4 µM) | 33.5% | 32 µg/mL (≈ 48.4 µM) | 128 µg/mL (≈ 194 µM) | Active | 64 µg/mL (≈ 96.9 µM) | 128 µg/mL (≈ 194 µM) | – | 32 µg/mL (≈ 48.4 µM) | 64 µg/mL (≈ 96.9 µM) | Active | –
7 | O=C(Cn1cc(CCn2cc(CCBr)nn2)nn1)Nc1ccc(NC(=O)Cn2cc(CCn3cc(CCBr)nn3)nn2)cc1 | 32 µg/mL (≈ 43.8 µM) | 64 µg/mL (≈ 87.6 µM) | 45.6% | 8 µg/mL (≈ 11 µM) | 8 µg/mL (≈ 11 µM) | Active | 32 µg/mL (≈ 43.8 µM) | 128 µg/mL (≈ 175 µM) | – | 64 µg/mL (≈ 87.6 µM) | 64 µg/mL (≈ 87.6 µM) | Active | –
8 | O=C(Cn1cc(C2CC2)nn1)Nc1ccc(NC(=O)Cn2cc(C3CC3)nn2)cc1 | 64 µg/mL (≈ 157 µM) | 128 µg/mL (≈ 315 µM) | 76.5% | 128 µg/mL (≈ 315 µM) | 128 µg/mL (≈ 315 µM) | Active | 64 µg/mL (≈ 157 µM) | 64 µg/mL (≈ 157 µM) | – | 64 µg/mL (≈ 157 µM) | 128 µg/mL (≈ 315 µM) | Active | –
9 | O=C(Cn1cc(CCn2cc(C3CCCC3)nn2)nn1)Nc1ccc(NC(=O)Cn2cc(CCn3cc(C4CCCC4)nn3)nn2)cc1 | 4 µg/mL (≈ 6.13 µM) | 16 µg/mL (≈ 24.5 µM) | 43.9% | 128 µg/mL (≈ 196 µM) | 32 µg/mL (≈ 49 µM) | Active | 4 µg/mL (≈ 6.13 µM) | 128 µg/mL (≈ 196 µM) | – | 64 µg/mL (≈ 98 µM) | 64 µg/mL (≈ 98 µM) | Active | –
10 | O=C(Cn1cc(CCn2cc(-c3ccccc3)nn2)nn1)Nc1ccc(NC(=O)Cn2cc(CCn3cc(-c4ccccc4)nn3)nn2)cc1 | 64 µg/mL (≈ 95.7 µM) | 64 µg/mL (≈ 95.7 µM) | 27.1% | 32 µg/mL (≈ 47.9 µM) | 64 µg/mL (≈ 95.7 µM) | Active | 16 µg/mL (≈ 23.9 µM) | 128 µg/mL (≈ 191 µM) | – | 128 µg/mL (≈ 191 µM) | 64 µg/mL (≈ 95.7 µM) | Active | –
11 | O=C(Cn1cc(CC2CCCCC2)nn1)Nc1ccc(NC(=O)Cn2cc(CC3CCCCC3)nn2)cc1 | 32 µg/mL (≈ 61.7 µM) | 64 µg/mL (≈ 123 µM) | 33.8% | 16 µg/mL (≈ 30.8 µM) | 16 µg/mL (≈ 30.8 µM) | Active | 8 µg/mL (≈ 15.4 µM) | 4 µg/mL (≈ 7.71 µM) | – | 64 µg/mL (≈ 123 µM) | 64 µg/mL (≈ 123 µM) | Active | –
12 | O=C(Cn1cc(C2CCCC2)nn1)Nc1ccc(NC(=O)Cn2cc(C3CCCC3)nn2)cc1 | 32 µg/mL (≈ 69.2 µM) | 64 µg/mL (≈ 138 µM) | 67.1% | 32 µg/mL (≈ 69.2 µM) | 64 µg/mL (≈ 138 µM) | Active | 32 µg/mL (≈ 69.2 µM) | 128 µg/mL (≈ 277 µM) | 20.6% | 64 µg/mL (≈ 138 µM) | 64 µg/mL (≈ 138 µM) | Active | –
13 | CC1(C)S[C@@H]2[C@H](NC(=O)[C@H](N)c3ccccc3)C(=O)N2[C@H]1C(=O)O [AMPICILLIN] | – | 1 µg/mL (≈ 2.86 µM) | – | 0.5 µg/mL (≈ 1.43 µM) | – | – | 0.5 µg/mL (≈ 1.43 µM) | 0.5 µg/mL (≈ 1.43 µM) | – | 1 µg/mL (≈ 2.86 µM) | 0.5 µg/mL (≈ 1.43 µM) | – | –
14 | O=C(Cn1cc(CCn2cc(C3CC3)nn2)nn1)Nc1ccc(NC(=O)Cn2cc(CCn3cc(C4CC4)nn3)nn2)cc1 | 64 µg/mL (≈ 107 µM) | 64 µg/mL (≈ 107 µM) | 42.8% | 32 µg/mL (≈ 53.6 µM) | 128 µg/mL (≈ 215 µM) | Active | 64 µg/mL (≈ 107 µM) | 128 µg/mL (≈ 215 µM) | – | 64 µg/mL (≈ 107 µM) | 64 µg/mL (≈ 107 µM) | Active | –
15 | O=C(Cn1cc(CCBr)nn1)Nc1ccc(NC(=O)Cn2cc(CCBr)nn2)cc1 | 32 µg/mL (≈ 59.2 µM) | 64 µg/mL (≈ 118 µM) | 30.4% | 32 µg/mL (≈ 59.2 µM) | 64 µg/mL (≈ 118 µM) | – | 32 µg/mL (≈ 59.2 µM) | 128 µg/mL (≈ 237 µM) | – | 64 µg/mL (≈ 118 µM) | 64 µg/mL (≈ 118 µM) | Active | 30.5%
16 | CCOC(=O)c1cn(CC(=O)Nc2ccc(NC(=O)Cn3cc(C(=O)OCC)nn3)cc2)nn1 | 32 µg/mL (≈ 68 µM) | 32 µg/mL (≈ 68 µM) | 46.5% | 64 µg/mL (≈ 136 µM) | 64 µg/mL (≈ 136 µM) | Active | 64 µg/mL (≈ 136 µM) | 128 µg/mL (≈ 272 µM) | – | 64 µg/mL (≈ 136 µM) | 64 µg/mL (≈ 136 µM) | Active | –
17 | CC(C)CCc1cn(CCc2cn(CC(=O)Nc3ccc(NC(=O)Cn4cc(CCn5cc(CCC(C)C)nn5)nn4)cc3)nn2)nn1 | 32 µg/mL (≈ 48.7 µM) | 32 µg/mL (≈ 48.7 µM) | 44.9% | 16 µg/mL (≈ 24.4 µM) | 64 µg/mL (≈ 97.4 µM) | – | 16 µg/mL (≈ 24.4 µM) | 128 µg/mL (≈ 195 µM) | – | 128 µg/mL (≈ 195 µM) | 32 µg/mL (≈ 48.7 µM) | Active | 21.9%
18 | [N-]=[N+]=NCCc1cn(CC(=O)Nc2ccc(NC(=O)Cn3cc(CCN=[N+]=[N-])nn3)cc2)nn1 | 16 µg/mL (≈ 34.4 µM) | 64 µg/mL (≈ 138 µM) | 52.8% | 32 µg/mL (≈ 68.9 µM) | 8 µg/mL (≈ 17.2 µM) | Active | 32 µg/mL (≈ 68.9 µM) | 32 µg/mL (≈ 68.9 µM) | – | 64 µg/mL (≈ 138 µM) | 64 µg/mL (≈ 138 µM) | Active | –
19 | O=C(Cn1cc(-c2ccccc2)nn1)Nc1ccc(NC(=O)Cn2cc(-c3ccccc3)nn2)cc1 | 32 µg/mL (≈ 66.9 µM) | 64 µg/mL (≈ 134 µM) | 40.1% | 16 µg/mL (≈ 33.4 µM) | 64 µg/mL (≈ 134 µM) | Active | 128 µg/mL (≈ 267 µM) | 64 µg/mL (≈ 134 µM) | – | 64 µg/mL (≈ 134 µM) | 64 µg/mL (≈ 134 µM) | Active | –

— ChEMBL document CHEMBL5131406, “New bis- and tetrakis-1,2,3-triazole derivatives: Synthesis, DNA cleavage, molecular docking, antimicrobial, antioxidant activity and acid dissociation constants” (2022)
